The structures appear in SMILES notation.

The experiment in a line: Antagonist activity at CXCR3 assessed as inhibition of ITAC-mediated cell migration in presence of 100% human serum.
For orientation: IC50 means the midpoint of a concentration-inhibition curve. For the molecule `CCS(=O)(=O)CCN(C(=O)Cc1ccc(C(F)(F)F)c(F)c1)[C@H](C)c1nc2ncccc2c(=O)n1-c1ccc(F)cc1`, the IC50 amounted to 0.292 µM.
In the case of `C[C@H](c1nc2ccccn2c(=O)c1-c1ccc(C#N)cc1)N(CC1CCS(=O)(=O)CC1)C(=O)Cc1ccc(OC(F)(F)F)cc1` it was 0.06 µM; in that of `C[C@H](c1nc2ncccc2c(=O)n1-c1ccc(C#N)cc1)N(CC1CCS(=O)(=O)CC1)C(=O)Cc1ccc(F)c(C(F)(F)F)c1`, 0.039 µM.
On to `C[C@H](c1nc2ncccc2c(=O)n1-c1ccc(C#N)cc1)N(CC1CCS(=O)(=O)CC1)C(=O)Cc1ccc(C(F)(F)F)c(F)c1`, for which the half-maximal inhibitory concentration (IC50) turned out to be 0.037 µM.
For `C[C@H](c1nc2ncccc2c(=O)n1-c1ccc(F)cc1)N(CC1CCS(=O)(=O)CC1)C(=O)Cc1ccc(C(F)(F)F)c(F)c1`, the half-inhibitory concentration (IC50) worked out at 0.09 µM.
In the case of `C[C@H](c1nc2ncccc2c(=O)n1-c1ccc(F)cc1)N(CC1CCS(=O)(=O)CC1)C(=O)Cc1ccc(F)c(C(F)(F)F)c1` it was 0.072 µM; in that of `CCS(=O)(=O)CCN(C(=O)Cc1ccc(F)c(C(F)(F)F)c1)[C@H](C)c1nc2ncccc2c(=O)n1-c1ccc(F)cc1`, 0.254 µM; in that of `C[C@H](c1nc2ncccc2c(=O)n1-c1ccc(Cl)cc1)N(CC1CCS(=O)(=O)CC1)C(=O)Cc1ccc(C(F)(F)F)c(F)c1`, 0.055 µM.
Turning to `C[C@H](c1nc2ncccc2c(=O)n1-c1ccc(Cl)cc1)N(CC1CCS(=O)(=O)CC1)C(=O)Cc1ccc(F)c(C(F)(F)F)c1`, the IC50 stood at 0.045 µM.
In the case of `CCS(=O)(=O)CCN(C(=O)Cc1ccc(C(F)(F)F)c(F)c1)[C@H](C)c1nc2ncccc2c(=O)n1-c1ccc(Cl)cc1` it was 0.107 µM; in that of `CCS(=O)(=O)CCN(C(=O)Cc1ccc(F)c(C(F)(F)F)c1)[C@H](C)c1nc2ncccc2c(=O)n1-c1ccc(Cl)cc1`, 0.102 µM.
Regarding `CCS(=O)(=O)CCN(C(=O)Cc1ccc(C(F)(F)F)c(F)c1)[C@H](C)c1nc2ncccc2c(=O)n1-c1ccc(C#N)cc1` [(R)-N-(1-(3-(4-cyanophenyl)-4-oxo-3,4-dihydropyrido[2,3-d]pyrimidin-2-yl)ethyl)-N-(2-(ethylsulfonyl)ethyl)-2-(3-fluoro-4-(trifluoromethyl)phenyl)acetamide], the IC50 was 0.047 µM.

For the origin of these results see BindingDB's records for doi:10.1016/j.bmcl.2011.10.120 (Amgen, 2011).
